In patent US12215140B2, “Method of stabilizing protein contained in specimen and solution for stabilizing protein contained in specimen” (EIKEN KAGAKU KABUSHIKI KAISHA, priority 2018, dated 2025):
Values joined by “and” are separate entries in the source; they are usually repeats but may differ in a detail not shown here. Identical values can stand only once.

Target: hemoglobin (Homo sapiens, UniProt P68871+P69905)
Assay: Stability of hemoglobin in samples preserved at 37° C. in preservation solution containing no haptoglobin, Hb measured by latex agglutination method (Examples 8, 9 and Table 10)
Conditions: for Hb concentration / Recovery ratio with respect to Hb after 0 days: no phenylboronic acid, sugar 100 mmol/L; for recovery ratio of hemoglobin in the sample: sugar further added to phenylboronic acid 0.5 mmol/L, no haptoglobin, Feces 1, Feces 2, Feces 3
Protocol: Preservation solutions were prepared with the addition of 40 mmol/L HEPES (pH 6.8), 0.1% BSA, 0.1% NaN3, and 0 to 2.5 mmol/L phenylboronic acid. […] Samples obtained by adding hemoglobin-added fecal specimens to the preservation solutions so that the fecal concentration would be 0.5% were preserved at 37° C. for 0, 16, 38, and 62 hours. The fecal specimens were added with hemoglobin having an amount such that the hemoglobin concentration in the samples would be about 300 μg/L. Instead of the fecal specimens to which hemoglobin was added, samples containing no fecal specimens, in which hemoglobin was added to the preservation solutions so that the hemoglobin concentration in the samples would be 300 μg/L, were similarly preserved. The hemoglobin (Hb) concentrations (μg/L) in the preserved samples were measured by the latex agglutination method using the same measurement reagent and measurement device as in Example 1.
The concentration of phenylboronic acid in the preservation solutions of Example 8 was fixed to 0.5 mmol/L, preservation solutions to which sorbitol or sucrose was further added at 10 to 250 mmol/L or trehalose, glucose, fructose, or mannitol was further added at 50 to 100 mmol/L were prepared, and testing was conducted in the same manner as in Example 8. In addition, preservation solutions to which the phenylboronic acid was added but no sugar was added were prepared, preservation solutions to which the phenylboronic acid and sugar were not added were prepared for the comparative examples, and testing was conducted in the same manner.
For comparative examples, preservation solutions to which no arylboronic acid was added were prepared, and testing was conducted in the same manner.

hemoglobin, sequence (P69905 2-142): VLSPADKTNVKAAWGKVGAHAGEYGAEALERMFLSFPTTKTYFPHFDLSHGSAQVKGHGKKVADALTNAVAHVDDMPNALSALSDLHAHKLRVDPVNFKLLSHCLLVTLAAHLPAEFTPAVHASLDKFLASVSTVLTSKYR
hemoglobin, sequence (P68871 2-147): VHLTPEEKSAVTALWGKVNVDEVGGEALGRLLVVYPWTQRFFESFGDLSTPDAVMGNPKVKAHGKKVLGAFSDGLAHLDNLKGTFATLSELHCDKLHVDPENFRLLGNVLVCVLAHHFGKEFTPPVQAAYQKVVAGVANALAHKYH

Row | Structure (SMILES) | Hb concentration (Feces 1, 0 h at 37° C.) [µg/L] | Recovery ratio with respect to Hb after 0 days (Feces 1, 0 h at 37° C.) [%] | Hb concentration (Feces 1, 16 h at 37° C.) [µg/L] | Recovery ratio with respect to Hb after 0 days (Feces 1, 16 h at 37° C.) [%] | Hb concentration (Feces 1, 38 h at 37° C.) [µg/L] | Recovery ratio with respect to Hb after 0 days (Feces 1, 38 h at 37° C.) [%] | Hb concentration (Feces 1, 62 h at 37° C.) [µg/L] | Recovery ratio with respect to Hb after 0 days (Feces 1, 62 h at 37° C.) [%] | Hb concentration (Feces 2, 0 h at 37° C.) [µg/L] | Recovery ratio with respect to Hb after 0 days (Feces 2, 0 h at 37° C.) [%] | Hb concentration (Feces 2, 16 h at 37° C.) [µg/L] | Recovery ratio with respect to Hb after 0 days (Feces 2, 16 h at 37° C.) [%] | Hb concentration (Feces 2, 38 h at 37° C.) [µg/L] | Recovery ratio with respect to Hb after 0 days (Feces 2, 38 h at 37° C.) [%] | Hb concentration (Feces 2, 62 h at 37° C.) [µg/L] | Recovery ratio with respect to Hb after 0 days (Feces 2, 62 h at 37° C.) [%] | Hb concentration (No feces, 0 h at 37° C.) [µg/L] | Recovery ratio with respect to Hb after 0 days (No feces, 0 h at 37° C.) [%] | Hb concentration (No feces, 16 h at 37° C.) [µg/L] | Recovery ratio with respect to Hb after 0 days (No feces, 16 h at 37° C.) [%] | further results
1 | O=C(CO)[C@@H](O)[C@H](O)[C@H](O)CO [Fructose, fructose] | 281 | 100 | 134 | 48 | 35 | 12 | 0 | 0 | 268 | 100 | 60 | 22 | 1 | 0 | 0 | 0 | 284 | 100 | 246 | 86 | Hb concentration (Feces 3, 0 h at 37° C.): 263 µg/L and 269 µg/L; Recovery ratio with respect to Hb after 0 days (Feces 3, 0 h at 37° C.): 100%; Hb concentration (Feces 3, 16 h at 37° C.): 51 µg/L and 57 µg/L; Recovery ratio with respect to Hb after 0 days (Feces 3, 16 h at 37° C.): 19% and 21%; Hb concentration (Feces 3, 38 h at 37° C.): 0 µg/L; Recovery ratio with respect to Hb after 0 days (Feces 3, 38 h at 37° C.): 0%; Hb concentration (Feces 3, 62 h at 37° C.): 0 µg/L; Recovery ratio with respect to Hb after 0 days (Feces 3, 62 h at 37° C.): 0%; Hb concentration (No feces, 38 h at 37° C.): 233 µg/L; Recovery ratio with respect to Hb after 0 days (No feces, 38 h at 37° C.): 82%; Hb concentration (No feces, 62 h at 37° C.): 230 µg/L; Recovery ratio with respect to Hb after 0 days (No feces, 62 h at 37° C.): 81%; recovery ratio of hemoglobin in the sample: further improved
2 | OC[C@@H](O)[C@@H](O)[C@H](O)[C@H](O)CO [Mannitol, mannitol] | 276 | 100 | 131 | 48 | 29 | 10 | 1 | 0 | 266 | 100 | 55 | 21 | 1 | 0 | 0 | 0 | 281 | 100 | 254 | 91 | Hb concentration (No feces, 38 h at 37° C.): 237 µg/L; Recovery ratio with respect to Hb after 0 days (No feces, 38 h at 37° C.): 84%; Hb concentration (No feces, 62 h at 37° C.): 235 µg/L; Recovery ratio with respect to Hb after 0 days (No feces, 62 h at 37° C.): 84%; recovery ratio of hemoglobin in the sample: further improved
3 | OC[C@@H](O)[C@@H](O)[C@H](O)[C@@H](O)CO [Sorbitol, sorbitol] | 290 | 100 | 146 | 50 | 39 | 13 | 1 | 0 | 275 | 100 | 61 | 22 | 0 | 0 | 0 | 0 | 300 | 100 | 263 | 88 | Hb concentration (Feces 3, 0 h at 37° C.): 277 µg/L; Recovery ratio with respect to Hb after 0 days (Feces 3, 0 h at 37° C.): 100%; Hb concentration (Feces 3, 16 h at 37° C.): 49 µg/L; Recovery ratio with respect to Hb after 0 days (Feces 3, 16 h at 37° C.): 18%; Hb concentration (Feces 3, 38 h at 37° C.): 1 µg/L; Recovery ratio with respect to Hb after 0 days (Feces 3, 38 h at 37° C.): 0%; Hb concentration (Feces 3, 62 h at 37° C.): 0 µg/L; Recovery ratio with respect to Hb after 0 days (Feces 3, 62 h at 37° C.): 0%; Hb concentration (No feces, 38 h at 37° C.): 245 µg/L; Recovery ratio with respect to Hb after 0 days (No feces, 38 h at 37° C.): 82%; Hb concentration (No feces, 62 h at 37° C.): 235 µg/L; Recovery ratio with respect to Hb after 0 days (No feces, 62 h at 37° C.): 79%; recovery ratio of hemoglobin in the sample: further improved
4 | OC[C@H]1O[C@@](CO)(O[C@H]2O[C@H](CO)[C@@H](O)[C@H](O)[C@H]2O)[C@@H](O)[C@@H]1O [Sucrose, sucrose] | 271 | 100 | 137 | 51 | 45 | 16 | 10 | 4 | 255 | 100 | 57 | 22 | 3 | 1 | 0 | 0 | 278 | 100 | 245 | 88 | Hb concentration (Feces 3, 0 h at 37° C.): 257 µg/L; Recovery ratio with respect to Hb after 0 days (Feces 3, 0 h at 37° C.): 100%; Hb concentration (Feces 3, 16 h at 37° C.): 67 µg/L; Recovery ratio with respect to Hb after 0 days (Feces 3, 16 h at 37° C.): 26%; Hb concentration (Feces 3, 38 h at 37° C.): 0 µg/L; Recovery ratio with respect to Hb after 0 days (Feces 3, 38 h at 37° C.): 0%; Hb concentration (Feces 3, 62 h at 37° C.): 0 µg/L; Recovery ratio with respect to Hb after 0 days (Feces 3, 62 h at 37° C.): 0%; Hb concentration (No feces, 38 h at 37° C.): 229 µg/L; Recovery ratio with respect to Hb after 0 days (No feces, 38 h at 37° C.): 83%; Hb concentration (No feces, 62 h at 37° C.): 224 µg/L; Recovery ratio with respect to Hb after 0 days (No feces, 62 h at 37° C.): 81%; recovery ratio of hemoglobin in the sample: further improved
